The target of test [1] is Mitogen-activated protein kinase 14 (Homo sapiens, UniProt Q16539). Kind of test: Selectivity interaction (Kinase panel (Z-LYTE Assay)) EUB0001632a MAPK14. Particulars: at 10 µM.
Test [2] addresses CDK18/Cyclin Y (Homo sapiens) (UniProt Q07002+Q8ND76). Kind of test: Selectivity interaction (Kinase panel (Z-LYTE Assay)) EUB0001632a CDK18. It counts as protein-complex assay. Conditions: at 10 µM.
In test [3] the target is T1, Cyclin-dependent kinase 11A (Homo sapiens) (UniProt Q9UQ88).
T1 sequence (whole entry): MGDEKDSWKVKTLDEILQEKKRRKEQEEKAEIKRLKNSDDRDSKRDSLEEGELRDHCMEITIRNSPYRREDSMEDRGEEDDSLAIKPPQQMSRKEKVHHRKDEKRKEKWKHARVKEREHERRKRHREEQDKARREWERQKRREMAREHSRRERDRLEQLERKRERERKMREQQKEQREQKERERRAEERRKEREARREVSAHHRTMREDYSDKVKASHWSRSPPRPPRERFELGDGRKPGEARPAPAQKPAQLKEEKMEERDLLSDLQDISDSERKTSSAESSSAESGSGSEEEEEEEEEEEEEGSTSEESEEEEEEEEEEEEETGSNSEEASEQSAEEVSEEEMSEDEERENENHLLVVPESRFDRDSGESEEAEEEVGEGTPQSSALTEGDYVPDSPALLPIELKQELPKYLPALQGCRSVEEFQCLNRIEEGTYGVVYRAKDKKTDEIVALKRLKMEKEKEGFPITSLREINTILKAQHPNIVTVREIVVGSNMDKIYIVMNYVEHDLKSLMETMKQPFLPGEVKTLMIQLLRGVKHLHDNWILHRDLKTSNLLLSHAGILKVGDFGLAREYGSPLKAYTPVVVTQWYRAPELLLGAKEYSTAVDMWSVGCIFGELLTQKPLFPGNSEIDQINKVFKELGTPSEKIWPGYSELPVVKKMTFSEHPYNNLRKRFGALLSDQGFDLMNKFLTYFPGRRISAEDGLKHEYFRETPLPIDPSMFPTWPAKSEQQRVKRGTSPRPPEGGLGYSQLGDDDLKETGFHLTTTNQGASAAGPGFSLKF
Kind of test: Selectivity interaction (KinomeScan (DiscoverX)) EUB0000607a CDK11A. Conditions: at 10 µM.

Test [4] has as its target Serine/threonine-protein kinase PAK 3 (Homo sapiens) (UniProt O75914). Conditions: at 10 µM.
Test [5] concerns the target STE20-like serine/threonine-protein kinase (Homo sapiens, UniProt Q9H2G2). The test can be described thus: Selectivity interaction (Kinase panel (DSF assay)) EUB0001558a SLK.
Test [6] deals with MAP kinase-activated protein kinase 2 (Homo sapiens, UniProt P49137). Kind of test: Selectivity interaction (KinomeScan (DiscoverX)) EUB0000229b MAPKAPK2. Particulars: at 10 µM.
Chain of MAP kinase-activated protein kinase 2 (P49137 whole entry, looked up): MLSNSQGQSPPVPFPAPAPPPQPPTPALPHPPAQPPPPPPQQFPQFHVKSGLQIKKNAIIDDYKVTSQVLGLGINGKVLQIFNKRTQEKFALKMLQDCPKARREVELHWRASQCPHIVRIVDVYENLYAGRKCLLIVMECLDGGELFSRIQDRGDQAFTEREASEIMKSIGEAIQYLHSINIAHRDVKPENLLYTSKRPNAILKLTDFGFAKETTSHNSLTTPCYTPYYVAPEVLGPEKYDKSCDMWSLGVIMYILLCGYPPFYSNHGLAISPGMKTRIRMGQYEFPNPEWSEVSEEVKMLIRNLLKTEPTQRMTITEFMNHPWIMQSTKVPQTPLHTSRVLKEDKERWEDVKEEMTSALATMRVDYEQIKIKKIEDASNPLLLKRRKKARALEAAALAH
Test [7] concerns the target Delta-type opioid receptor (Homo sapiens, UniProt P41143). Kind of test: Selectivity interaction (GPCR panel (PDSP screen)) EUB0000311b OPRD1. Conditions: at 10 µM.
For test [8], the target named is Serine/threonine-protein kinase MRCK gamma (Homo sapiens) (UniProt Q6DT37). The test can be described thus: Selectivity interaction (KinomeScan (DiscoverX)) EUB0001079a CDC42BPG. Conditions: at 1 µM.
Test [9] concerns the target T2, Serine/threonine-protein kinase Nek2 (Homo sapiens) (UniProt P51955).
T2 sequence (whole entry): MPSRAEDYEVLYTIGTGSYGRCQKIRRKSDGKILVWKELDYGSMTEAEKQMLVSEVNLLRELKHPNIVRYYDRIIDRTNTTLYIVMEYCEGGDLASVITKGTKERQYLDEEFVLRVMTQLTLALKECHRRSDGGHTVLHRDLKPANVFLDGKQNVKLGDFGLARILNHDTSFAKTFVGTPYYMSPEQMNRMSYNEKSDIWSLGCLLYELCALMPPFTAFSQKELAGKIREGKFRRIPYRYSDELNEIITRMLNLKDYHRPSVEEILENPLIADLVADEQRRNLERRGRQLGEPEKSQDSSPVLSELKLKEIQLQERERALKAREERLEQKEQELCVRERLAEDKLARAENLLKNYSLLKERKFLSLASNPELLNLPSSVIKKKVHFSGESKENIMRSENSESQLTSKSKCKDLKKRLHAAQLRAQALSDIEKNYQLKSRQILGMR
Kind of test: Selectivity interaction (KinomeScan (DiscoverX)) EUB0001619a NEK2. Particulars: at 1 µM.

For test [10], the target named is RAC-alpha serine/threonine-protein kinase (Homo sapiens, UniProt P31749). Kind of test: Selectivity interaction (Kinase panel (literature)) EUB0001199aCl AKT1. Particulars: at 1 µM.
Chain of RAC-alpha serine/threonine-protein kinase (P31749 whole entry): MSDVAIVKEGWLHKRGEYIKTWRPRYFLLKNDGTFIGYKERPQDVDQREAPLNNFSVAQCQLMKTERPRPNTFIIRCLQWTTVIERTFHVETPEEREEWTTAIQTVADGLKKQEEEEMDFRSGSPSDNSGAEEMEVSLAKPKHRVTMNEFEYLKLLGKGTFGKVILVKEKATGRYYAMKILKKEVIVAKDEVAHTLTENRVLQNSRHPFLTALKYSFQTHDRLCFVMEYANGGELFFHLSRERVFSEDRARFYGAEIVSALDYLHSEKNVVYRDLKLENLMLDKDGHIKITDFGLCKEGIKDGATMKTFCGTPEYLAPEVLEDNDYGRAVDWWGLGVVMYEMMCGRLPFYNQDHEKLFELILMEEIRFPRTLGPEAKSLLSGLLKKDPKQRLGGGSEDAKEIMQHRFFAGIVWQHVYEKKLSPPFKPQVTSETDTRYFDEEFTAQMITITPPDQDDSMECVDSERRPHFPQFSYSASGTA
Test [11] concerns the target Tyrosine-protein kinase Fgr (Homo sapiens) (UniProt P09769). The test can be described thus: Selectivity interaction (ActivX KiNativ screen (kinase selectivity in THP-1 cell lysates)) EUB0000639a FGR. It counts as subcellular. Conditions: lysate.
The target in test [12] is Epidermal growth factor receptor (Homo sapiens, UniProt P00533). Kind of test: Selectivity interaction (Kinase panel (Invitrogen)) EUB0000639a EGFR. Particulars: at 200 nM.
Chain of Epidermal growth factor receptor (P00533 whole entry): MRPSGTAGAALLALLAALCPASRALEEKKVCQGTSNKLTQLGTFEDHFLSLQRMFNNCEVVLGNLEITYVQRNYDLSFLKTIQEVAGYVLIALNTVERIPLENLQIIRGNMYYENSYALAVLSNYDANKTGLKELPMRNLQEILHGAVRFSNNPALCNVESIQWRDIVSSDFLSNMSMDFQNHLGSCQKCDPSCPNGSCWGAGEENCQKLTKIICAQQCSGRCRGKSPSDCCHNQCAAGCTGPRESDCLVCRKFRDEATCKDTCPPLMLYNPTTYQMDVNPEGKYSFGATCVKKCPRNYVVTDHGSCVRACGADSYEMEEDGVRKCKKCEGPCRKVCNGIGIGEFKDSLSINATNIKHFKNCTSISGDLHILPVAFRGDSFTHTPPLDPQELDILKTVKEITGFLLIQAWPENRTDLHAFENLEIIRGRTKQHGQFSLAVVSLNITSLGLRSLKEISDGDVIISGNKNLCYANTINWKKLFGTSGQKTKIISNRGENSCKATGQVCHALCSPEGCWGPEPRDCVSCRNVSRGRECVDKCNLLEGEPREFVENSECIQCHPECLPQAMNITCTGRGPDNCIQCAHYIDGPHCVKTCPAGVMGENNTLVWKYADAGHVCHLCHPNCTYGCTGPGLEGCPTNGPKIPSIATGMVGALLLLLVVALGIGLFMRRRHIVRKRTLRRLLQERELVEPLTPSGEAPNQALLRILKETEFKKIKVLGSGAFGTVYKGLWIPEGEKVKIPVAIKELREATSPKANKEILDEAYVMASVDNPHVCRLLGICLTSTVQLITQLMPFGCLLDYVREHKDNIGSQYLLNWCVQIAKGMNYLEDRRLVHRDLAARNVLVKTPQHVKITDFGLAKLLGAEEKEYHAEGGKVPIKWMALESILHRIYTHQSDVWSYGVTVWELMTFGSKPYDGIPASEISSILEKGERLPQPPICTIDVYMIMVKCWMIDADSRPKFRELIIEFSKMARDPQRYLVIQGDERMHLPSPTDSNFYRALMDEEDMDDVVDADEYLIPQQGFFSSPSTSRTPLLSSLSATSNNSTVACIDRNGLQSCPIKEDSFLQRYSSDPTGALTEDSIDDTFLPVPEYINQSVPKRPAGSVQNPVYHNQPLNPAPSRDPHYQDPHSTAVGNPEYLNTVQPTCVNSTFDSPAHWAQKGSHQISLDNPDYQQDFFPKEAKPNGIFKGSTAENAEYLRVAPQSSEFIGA
Test [13] has as its target Tyrosine-protein kinase BAZ1B (Homo sapiens) (UniProt Q9UIG0). Kind of test: Selectivity interaction (Bromodomain panel (DSF asssay)) EUB0000270b BAZ1B.
In test [14] the target is T3, Serine/threonine-protein kinase RIO3 (Homo sapiens) (UniProt O14730).
T3 sequence (whole entry): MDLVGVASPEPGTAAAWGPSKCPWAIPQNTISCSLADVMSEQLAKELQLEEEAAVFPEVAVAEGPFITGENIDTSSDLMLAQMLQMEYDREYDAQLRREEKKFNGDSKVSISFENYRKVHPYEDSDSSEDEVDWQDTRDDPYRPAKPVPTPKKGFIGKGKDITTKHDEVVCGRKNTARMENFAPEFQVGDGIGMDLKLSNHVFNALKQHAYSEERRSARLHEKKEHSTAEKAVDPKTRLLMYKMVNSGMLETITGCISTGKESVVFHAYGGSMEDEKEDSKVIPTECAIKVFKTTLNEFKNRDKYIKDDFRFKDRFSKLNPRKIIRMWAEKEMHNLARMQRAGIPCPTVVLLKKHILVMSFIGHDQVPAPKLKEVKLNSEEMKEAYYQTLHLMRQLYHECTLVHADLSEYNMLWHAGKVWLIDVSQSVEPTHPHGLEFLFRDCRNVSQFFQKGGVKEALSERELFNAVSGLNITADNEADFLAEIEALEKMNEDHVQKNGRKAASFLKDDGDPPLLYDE
The test can be described thus: Selectivity interaction (KinomeScan (DiscoverX)) EUB0000092b RIOK3. Conditions: at 10 µM.

For test [15], the target named is Serine/threonine-protein kinase PAK 1 (Homo sapiens) (UniProt Q13153). The test can be described thus: Selectivity interaction (KinomeScan (DiscoverX)) EUB0000045b PAK1.
Chain of Serine/threonine-protein kinase PAK 1 (Homo sapiens) (Q13153 whole entry): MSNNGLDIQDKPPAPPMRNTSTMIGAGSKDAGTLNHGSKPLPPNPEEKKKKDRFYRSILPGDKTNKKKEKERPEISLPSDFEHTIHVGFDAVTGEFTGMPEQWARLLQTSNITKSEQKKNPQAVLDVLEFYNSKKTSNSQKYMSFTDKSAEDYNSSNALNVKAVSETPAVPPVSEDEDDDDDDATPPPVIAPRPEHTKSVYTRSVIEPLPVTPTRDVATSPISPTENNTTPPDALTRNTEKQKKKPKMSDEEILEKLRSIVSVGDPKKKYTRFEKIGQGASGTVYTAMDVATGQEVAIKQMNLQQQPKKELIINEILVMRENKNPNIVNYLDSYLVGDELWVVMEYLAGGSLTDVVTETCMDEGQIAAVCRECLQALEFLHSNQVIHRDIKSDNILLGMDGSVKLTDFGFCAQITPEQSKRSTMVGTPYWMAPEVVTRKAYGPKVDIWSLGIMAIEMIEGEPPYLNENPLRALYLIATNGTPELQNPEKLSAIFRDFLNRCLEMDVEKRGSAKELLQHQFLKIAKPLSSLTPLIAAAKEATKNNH
The next test has as its target Focal adhesion kinase 1 (Homo sapiens, UniProt Q05397). The test can be described thus: Selectivity interaction (KinomeScan (DiscoverX)) EUB0000618a PTK2. Particulars: at 10 µM.

The structures appear in SMILES notation.

Chain of Tyrosine-protein kinase Fgr (Homo sapiens) (P09769 2-529 limits assumed): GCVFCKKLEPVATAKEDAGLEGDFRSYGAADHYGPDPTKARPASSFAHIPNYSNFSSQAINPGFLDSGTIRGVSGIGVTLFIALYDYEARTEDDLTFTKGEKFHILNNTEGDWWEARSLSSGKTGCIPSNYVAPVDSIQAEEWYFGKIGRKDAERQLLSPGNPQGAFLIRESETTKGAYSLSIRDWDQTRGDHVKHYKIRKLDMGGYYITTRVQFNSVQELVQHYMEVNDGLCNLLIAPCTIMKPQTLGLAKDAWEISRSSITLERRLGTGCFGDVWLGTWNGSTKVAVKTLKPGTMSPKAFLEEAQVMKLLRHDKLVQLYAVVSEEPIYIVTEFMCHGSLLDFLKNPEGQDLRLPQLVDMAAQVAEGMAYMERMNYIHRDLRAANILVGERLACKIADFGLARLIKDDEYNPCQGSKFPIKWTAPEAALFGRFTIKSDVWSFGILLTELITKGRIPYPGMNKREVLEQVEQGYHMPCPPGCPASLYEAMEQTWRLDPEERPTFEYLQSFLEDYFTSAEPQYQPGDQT
Chain of Mitogen-activated protein kinase 14 (Q16539 whole entry): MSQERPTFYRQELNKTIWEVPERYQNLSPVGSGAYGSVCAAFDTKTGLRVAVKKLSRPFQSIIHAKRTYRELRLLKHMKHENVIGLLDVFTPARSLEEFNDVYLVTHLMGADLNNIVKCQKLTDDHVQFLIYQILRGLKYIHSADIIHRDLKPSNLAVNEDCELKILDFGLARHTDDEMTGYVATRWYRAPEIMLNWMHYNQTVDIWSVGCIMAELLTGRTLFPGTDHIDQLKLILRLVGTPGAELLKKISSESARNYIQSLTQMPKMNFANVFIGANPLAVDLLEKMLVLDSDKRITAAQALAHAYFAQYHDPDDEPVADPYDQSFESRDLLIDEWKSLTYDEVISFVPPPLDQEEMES
Chain of Tyrosine-protein kinase BAZ1B (Homo sapiens) (Q9UIG0 whole entry): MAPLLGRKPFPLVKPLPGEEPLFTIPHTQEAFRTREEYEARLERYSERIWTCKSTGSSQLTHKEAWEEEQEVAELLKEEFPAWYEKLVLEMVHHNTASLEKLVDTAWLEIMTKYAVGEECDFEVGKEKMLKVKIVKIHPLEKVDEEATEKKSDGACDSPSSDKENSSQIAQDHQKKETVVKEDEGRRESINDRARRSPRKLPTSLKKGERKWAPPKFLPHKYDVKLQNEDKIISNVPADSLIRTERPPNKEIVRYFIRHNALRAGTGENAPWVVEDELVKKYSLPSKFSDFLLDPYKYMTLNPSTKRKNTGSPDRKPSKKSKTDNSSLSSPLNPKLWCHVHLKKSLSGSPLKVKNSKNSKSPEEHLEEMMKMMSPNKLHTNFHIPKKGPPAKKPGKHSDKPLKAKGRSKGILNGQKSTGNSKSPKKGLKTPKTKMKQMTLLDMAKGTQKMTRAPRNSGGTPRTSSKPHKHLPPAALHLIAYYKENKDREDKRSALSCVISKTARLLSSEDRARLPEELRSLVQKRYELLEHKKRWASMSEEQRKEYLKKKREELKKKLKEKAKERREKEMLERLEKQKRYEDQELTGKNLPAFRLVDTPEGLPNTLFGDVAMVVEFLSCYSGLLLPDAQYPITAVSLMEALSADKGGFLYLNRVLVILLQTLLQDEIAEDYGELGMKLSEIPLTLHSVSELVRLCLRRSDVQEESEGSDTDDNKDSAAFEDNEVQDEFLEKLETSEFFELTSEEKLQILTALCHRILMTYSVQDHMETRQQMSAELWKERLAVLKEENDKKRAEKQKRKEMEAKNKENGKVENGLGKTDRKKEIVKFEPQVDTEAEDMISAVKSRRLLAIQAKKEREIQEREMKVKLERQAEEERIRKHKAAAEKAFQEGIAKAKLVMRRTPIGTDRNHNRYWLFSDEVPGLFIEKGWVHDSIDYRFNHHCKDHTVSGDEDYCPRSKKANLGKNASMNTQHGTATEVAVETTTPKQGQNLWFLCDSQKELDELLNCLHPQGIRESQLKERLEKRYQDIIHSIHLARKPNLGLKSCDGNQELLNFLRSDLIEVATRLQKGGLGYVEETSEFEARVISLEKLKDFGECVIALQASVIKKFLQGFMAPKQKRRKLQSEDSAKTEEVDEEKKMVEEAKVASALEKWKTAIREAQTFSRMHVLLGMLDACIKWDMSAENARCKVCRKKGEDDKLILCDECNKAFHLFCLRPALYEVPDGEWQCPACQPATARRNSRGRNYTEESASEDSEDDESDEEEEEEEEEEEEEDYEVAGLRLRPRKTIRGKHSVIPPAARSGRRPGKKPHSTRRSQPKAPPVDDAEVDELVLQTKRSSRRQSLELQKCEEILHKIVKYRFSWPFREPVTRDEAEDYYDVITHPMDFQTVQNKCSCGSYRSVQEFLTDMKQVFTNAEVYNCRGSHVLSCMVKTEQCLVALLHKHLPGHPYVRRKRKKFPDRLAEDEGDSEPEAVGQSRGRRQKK

As for `Cn1cc(-n2cnc3c(NCc4nc5cc(Cl)c(Cl)cc5[nH]4)nc(N4CCOCC4)nc32)cn1`, the % of control is -3.84% in test [1] and 1.58% in test [2].

Regarding `CNC(=O)Nc1ccc(-c2nc(N3CC4CCC(C3)O4)c3cnn(C4CCC5(CC4)OCCO5)c3n2)cc1`, the % of control in [3] was 97%.

In the case of `Cc1cc([C@@H](C)Nc2ccccc2C(=O)O)c2nc(N3CCOCC3)cc(=O)n2c1` [AZD-6482], in test [4], the % of control stood at 98%.

`CC(C)(O)[C@H](F)CN1Cc2cc(NC(=O)c3cnn4cccnc34)c(N3CCOCC3)cc2C1=O` displayed a dTM in [5] of 1.7 K.

`COc1cc(N(C)c2ccnc3ccc(C(F)(F)F)cc23)cc(OC)c1OC` displayed a % binding in test [6] of 93%.

In the case of `CCc1ccccc1C(=O)Nc1n[nH]c2c(C)c(F)c(C3C(C#N)=C(C)N(C)C(C)=C3C#N)cc12` [BAY-3827], the % of inhibition in test [7] is 20.5%.

With `Nc1cnc(N2CCc3cc(S(=O)(=O)Nc4c(F)cc(Cl)cc4F)cc(N4CCCC4=O)c32)nc1` [TP-020n], in test [8], the % of control stood at 100%.

Consider `N#Cc1cccc(-c2c[nH]c3ncnc(N4CCOCC4)c23)c1`, for which, in test [9], the % of control was 100%.

In the case of `CN1Cc2nccc(-c3cn(C)nc3-c3ccc(F)cc3)c2C1=O`, the % of inhibition in test [10] was -3%.

For the molecule `CC[C@@H]1[C@H](F)C(=O)N[C@@H]1COc1nccc2cc(C(N)=O)c(OC)cc12` [ZIMLOVISERTIB], the % of inhibition in test [11] (at 0.01 µM) is -11.8%; in test [11] (at 0.04 µM) it was -4.6%; in test [11] (at 0.2 µM), -12.7%; in [11] (at 1 µM), -24.1%; in test [11] (at 5 µM), -17.9%; in test [12] it was 1.86%.

`Cc1cc(CN)cc(C)c1-c1ncn(C)c1-c1cncn1C` gave a dTM in [13] of -1.22 K.

`CCC(=O)N1CCN(c2ccc(-n3c(=O)ccc4cnc5ccc(-c6cnc7ccccc7c6)cc5c43)cc2C(F)(F)F)CC1`: the % of control in test [14] was found to be 90%.

For the molecule `C=CC(=O)Nc1cc(-n2c(=O)ccc3cnc4ccc(-c5ccc(NS(C)(=O)=O)cc5)cc4c32)ccc1C`, the % of control in test [15] (at 1 µM) stood at 86%; in [15] (at 10 µM), 62%.

As to `O[C@H]1CC[C@H](Nc2ncc3nc(Nc4c(F)cc(F)cc4F)n([C@H]4CCOC4)c3n2)CC1`, the % of control on Focal adhesion kinase 1 came out at 100%.

The values are drawn from ChEMBL document CHEMBL5465560, “Selectivity Literature for EUbOPEN Chemogenomic Library” (2024).
